Holding throughout (assay): Method of dilutions in liquid medium (MIC)
What all share (format): cell-based
Holding throughout (conditions): 24 hours at 37° C.

For one assay, the system named is Entero faecalis 02D2UC5. As to the method: (§1) A—Method of dilutions in liquid medium A series of tubes is prepared in which the same quantity of sterile nutritive medium is distributed. Increasing quantities of the product to be studied are distributed into each tube, then each tube is sown with a bacterial strain. After incubation for twenty-four hours in an oven at 37° C., the growth inhibition is evaluated by transillumination, which allows the minimal inhibitory concentrations (M.I.C.) to be determined, expressed in micrograms/cm^3. Activity in vitro MIC in μg/ml

The subject of another assay is Entero faecium 02D3IP2. As to the method: as §1
The subject of the next assay is Staph. aureus 011HT18. As to the method: as §1
Assay [1] has as its system Staph. coag. negative 012HT5. As to the method: as §1
Assay [2] concerns Staph. epidermidis 0126042. As to the method:
as §1

Assay [3] relates to Strepto. pneumoniae 030BI2. As for the experimental part:
as §1

A further assay has as its system Strepto. pyogene 02A1UC1. As to the method:
as §1

In the case of `C#CCONC(=O)O[C@H]1[C@@H](O)[C@H](Oc2ccc3c(O)c(C(=O)NCCN4CCOCC4)c(=O)oc3c2C)OC(C)(C)[C@@H]1OC` [Ex. 2, 7-[(6-deoxy-5-C-methyl-4-O-methyl-alpha-L-lyxo-hexopyranosyl)oxyl]-4-hydroxy-8-methyl-N-[2-(4-morpholinyl)ethyl]-2-oxo-2H-1-benzopyrane-3-carboxamide (2-propynyloxy)-carbamic 3′-ester acid], the “Activity in vitro MIC” value stood at 1.2 µg/mL in the assay on Entero faecalis 02D2UC5; 0.6 µg/mL with Entero faecium 02D3IP2; 0.04 µg/mL with Staph. aureus 011HT18; 0.04 µg/mL in assay [1]; 0.04 µg/mL in assay [2]; 0.08 µg/mL in assay [3]. Also, the “Activity in vitro MIC” value with Strepto. pyogene 02A1UC1 came out at 0.3 µg/mL.
In the case of `C#CCONC(=O)O[C@H]1[C@@H](O)[C@H](Oc2ccc3c(O)c(C(C)=NOC)c(=O)oc3c2C)OC(C)(C)[C@@H]1OC` [Ex. 3, 7-[[6-deoxy-5-C-methyl-4-O-methyl-alpha-L-lyxo-hexopyranosyl]oxy]-4-hydroxy-3-[1-(methoxyimino)ethyl]-8-methyl-2H-1-benzopyran-2-one(2-propynyloxy)-carbamic-3′-ester acid], the “Activity in vitro MIC” value is 1.2 µg/mL in the assay on Entero faecalis 02D2UC5; 1.2 µg/mL in the assay on Entero faecium 02D3IP2; 0.04 µg/mL with Staph. aureus 011HT18; 0.15 µg/mL in assay [1]; 0.04 µg/mL in assay [2]; 0.08 µg/mL in assay [3]. Moreover, the “Activity in vitro MIC” value in the assay with Strepto. pyogene 02A1UC1 was 0.6 µg/mL.
Take `C#CCONC(=O)O[C@H]1[C@@H](O)[C@H](Oc2ccc3c(O)c(C(C)=NOCC)c(=O)oc3c2C)OC(C)(C)[C@@H]1OC` [Ex. 4, 7-[(6-deoxy-5-C-methyl-4-O-methyl-alpha-L-lyxo-hexopyranosyl)oxy]-3-[1-(ethoxyimino)ethyl]-4-hydroxy-8-methyl-2H-1-benzopyran-2-one(2-propynyloxy)-carbamic 3′-ester acid]: the “Activity in vitro MIC” value in the assay with Entero faecalis 02D2UC5 came out at 1.2 µg/mL; in the assay on Entero faecium 02D3IP2, 1.2 µg/mL; in the assay with Staph. aureus 011HT18, 0.04 µg/mL; in assay [1], 0.15 µg/mL; in assay [2] it was 0.15 µg/mL; in assay [3], 0.15 µg/mL. Besides, the “Activity in vitro MIC” value in the assay with Strepto. pyogene 02A1UC1 came to 0.6 µg/mL.
As for `C#CCONC(=O)O[C@H]1[C@@H](O)[C@H](Oc2ccc3c(O)c(C(N)=O)c(=O)oc3c2C)OC(C)(C)[C@@H]1OC` [Ex. 1, (2-propynyloxy)-carbamic 3′ester of 7-[[6-deoxy-5-C-methyl-4-O-methyl-alpha-L-lyxo-hexopyranosyl]oxy]-4-hydroxy-8-methyl-2-oxo-2H-1-benzopyran-3-carboxamide acid], the “Activity in vitro MIC” value in the assay on Entero faecalis 02D2UC5 was found to be 0.3 µg/mL; with Entero faecium 02D3IP2 it was 0.08 µg/mL; in the assay with Staph. aureus 011HT18 it was 0.04 µg/mL; in assay [1] it was 0.3 µg/mL; in assay [2], 0.04 µg/mL; in assay [3], 0.04 µg/mL. In the assay with Strepto. pyogene 02A1UC1, the “Activity in vitro MIC” value came to 0.6 µg/mL.

The record behind these values is patent US6420538B1, “Aromatic amides, preparation method and application as medicines” (Aventis Pharma S.A., priority 1998, dated 2002).
